Measured values taken from US20060073121A1, “Spray formulation for pungency enhancement in Capsicum” (priority 2004, published 2006).

Tested on: Capsicum frutescens and Capsicum annuum
Assay: Comparative number of folds enhancement of phenyl propanoid intermediates and capsaicinoids by optimized elicitors
Assay type: in vivo
Description: (§1) The flowers of C. frutescens were sprayed with water, which was taken as control. The fruits of C. frutescens which received different treatments were harvested on 25, 30, 35 and 40 days after anthesis and extracted with 1:2 (w/v) of acetonitrile followed by in-vacuo evaporation and resuspension with 1 ml methanol. The extracted samples were centrifuged at 4000 rpm for 10 minutes. The samples were subjected to High Performance Liquid Chromatography for quantification of phenyl proponoid intermediates and major Capsaicinoids. The mobile phase of linear gradient of 0-100 % acetonitrile in water with pH 3.0 for 35 minutes and 100% was maintained for 2 minutes at 35th minute. The detection was at 236 nm and flow rate was maintained at 1 ml/min. C-18 column of 250×4.6 mm and 5-μm diameter was used. The reagent used was of HPLC grade. The intermediates of phenyl proponoid pathway (Phenylalanine, Cinnamic acid, Coumaric acid, Caffeic acid, Ferulic acid and Vanillylamine) and two major Capsaicinoids (Capsaicin and Dihydrdcapsaicin) were purchased from Sigma Co. A standard stock solution of 1 mg/ml was prepared in methanol. 5 and 10 μl of standards and samples was injected to HPLC for three times and the mean value was calculated. Standard deviation of samples was calculated according to Tukey's method.
as §1, with “C. annuum var Arka Lohit” for “C. frutescens”, “of Acetonitrile” for “of acetonitrile”, “of 0-100%” for “of 0-100 %”, “and Dihydrocapsaicin)” for “and Dihydrdcapsaicin)”

[1] = 35 days after anthesis, optimized concentration: biotic 0.5-1% w/v, abiotic 2.5 μM

Row | Compound | number of folds enhancement of Caffeic Acid [1] | number of folds enhancement of Capsaicin [1] | number of folds enhancement of Cinnamic Acid [1] | number of folds enhancement of Coumaric Acid [1] | number of folds enhancement of Dihydrocapsaicin [1] | number of folds enhancement of Ferulic Acid [1] | number of folds enhancement of Phenylalanine [1] | number of folds enhancement of Vanillylamine [1] | number of folds enhancement of Caffeic Acid (in vivo) | number of folds enhancement of Capsaicin (in vivo) | number of folds enhancement of Cinnamic Acid (in vivo) | number of folds enhancement of Coumaric Acid (in vivo) | number of folds enhancement of Dihydrocapsaicin (in vivo) | number of folds enhancement of Ferulic Acid (in vivo) | number of folds enhancement of Phenylalanine (in vivo) | number of folds enhancement of Vanillylamine (in vivo)
1 | CC/C=C\CC1C(=O)CCC1CC(=O)OC (stereo not shown) [Methyl Jasmonate] | 1.63-3.79 folds | 1.65-1.88 folds | 1.42-3.79 folds | 1.25-3.51 folds | 1.41-1.68 folds | 1.59-2.43 folds | 1.36-1.52 folds | 1.68-1.77 folds | – | – | – | – | – | – | – | –
2 | O=C([O-])c1ccccc1O.[Na+] [Salicylic Acid sodium salt, Salicylic acid sodium salt] | – | – | – | – | – | – | – | – | 1.45-1.75 folds | 1.26-1.58 folds | 1.36-2.50 folds | 1.28-1.67 folds | 1.11-1.32 folds | 1.11-1.28 folds | 1.02-1.44 folds | 1.26-1.28 folds
